From patent publication US20250000826A1, “APPLICATION OF BENZANILIDE COMPOUND IN TUMOR TREATMENT” (NANJING SHIJIANG MEDICINE TECHNOLOGY CO., LTD, priority 2021, published 2025) come the findings set out here.

Common to all, as to type: cell-based
The subject of assay [1] is MDA-MB-453 (breast cancer cell). Kind of assay: CellTiter-Glo cell viability, MDA-MB-453. As to conditions: Homo sapiens; MDA-MB-453, sensitive group, 3-4 days of culture, n=3; read-out: IC50 (μM), inhibitory effect on cell line. The method, then:
(§1) Cell viability was detected using the Promega CellTiter-Glo kit, cell viability was determined by directly measuring intracellular ATP content. In the experiment, the IC50 value of niclosamide on various tumor cell lines was determined. Each tumor cell was cultured separately in relevant medium (+p/s), and was incubated for 3 h, then the gradient diluted niclosamide was added. After 3-4 days of culture, the relevant IC50 (50% inhibiting concentration) was measured (n=3). The name, source and culture conditions of each tumor cell line were as follows: Cell line NCI-H82 (ATCC, No. HTB-175) was cultured in 10% fetal bovine serum-containing RPMI1640 medium (+P/S). Cell line MDA-MB-453 (ATCC, No. HTB-131) was cultured in 10% fetal bovine serum-containing Leibovitz's L-15 medium (+P/S).

For assay [2], the system named is G-401 (human renal carcinoma Wilms cell). Kind of assay: CellTiter-Glo cell viability, G-401. The conditions noted are these: G-401, sensitive group, 3-4 days of culture, n=3, read-out: IC50 (μM), inhibitory effect on cell line. The method, then:
as §1, with “G401” for “MDA-MB-453”, “CRL-1441)” for “HTB-131)”, “McCoy's 5a” for “Leibovitz's L-15”

The test system of assay [3] is SW48 (human colon adenocarcinoma cell). Kind of assay: CellTiter-Glo cell viability, SW48. As to conditions: SW48, sensitive group, 3-4 days of culture, n=3, read-out: IC50 (μM), inhibitory effect on cell line. The method, then:
as §1, with “SW48” for “MDA-MB-453”, “CCL-231)” for “HTB-131)”

Assay [4] has as its system NCI-H82 (ov-NNMT) cell. Kind of assay: CellTiter-Glo cell viability, NNMT protein-overexpressing NCI-H82 cell. As to conditions: Homo sapiens; NCI-H82 with NNMT gene inserted by viral vector, n=3. The method, then:
(§2) The NNMT protein-overexpressing NCI-H82 cell (NCI-H82 (ov-NNMT)) was obtained by inserting the NNMT gene into NCI-H82 cell using a viral vector. The control NCI-H82 cell (NCI-H82 (Con)) was obtained by transfecting NCI-H82 cell with empty virus vector without carrying NNMT gene. The IC50 value of niclosamide on control NCI-H82 cell (NCI-H82 (Con)) and NNMT protein-overexpressing NCI-H82 cell (NCI-H82 (ov-NNMT)) was determined using Promega CellTiter-Glo kit which detected cell viability by directly measuring intracellular ATP content (n=3), the experiment result was shown in Table 4 below: […]

Assay [5] deals with 786-0 (clear cell renal cell adenocarcinoma cell). Nature of the assay: CellTiter-Glo cell viability, 786-0. As to conditions: Homo sapiens; 786-0, insensitive group, 3-4 days of culture, n=3; read-out: IC50 (μM), inhibitory effect on cell line. The method, then:
as §1, with “786-0” for “MDA-MB-453”, “CRL-1932)” for “HTB-131)”, “RPMI1640” for “Leibovitz's L-15”

Assay [6] has as its system CFPAC-1 (human pancreatic cancer cell). Nature of the assay: CellTiter-Glo cell viability, CFPAC-1. The conditions noted are these: CFPAC-1, insensitive group, 3-4 days of culture, n=3, read-out: IC50 (μM), inhibitory effect on cell line. The method, then:
as §1, with “CFPAC-1” for “MDA-MB-453”, “CRL-1918)” for “HTB-131)”, “IMDM” for “Leibovitz's L-15”

Assay [7] relates to NCI-H82 (human small cell lung cancer cell). Nature of the assay: CellTiter-Glo cell viability, NCI-H82. The conditions noted are these: NCI-H82, sensitive group, 3-4 days of culture, n=3, read-out: IC50 (μM), inhibitory effect on cell line. The method, then: as §1, with “(+P/S).” for “(+P/S). Cell line MDA-MB-453 (ATCC, No. HTB-131) was cultured in 10% fetal bovine serum-containing Leibovitz's L-15 medium (+P/S).”

Assay [8] concerns GB-1 (human glioblastoma cell). Kind of assay: CellTiter-Glo cell viability, GB-1. As to conditions: GB-1, insensitive group, 3-4 days of culture, n=3, read-out: IC50 (μM), inhibitory effect on cell line. The method, then: as §1, with “GB-1 (JCRB,” for “MDA-MB-453 (ATCC,”, “IF050489)” for “HTB-131)”, “[…] DMEM” for “Leibovitz's L-15”
Assay [9] relates to SF-126 (human glioblastoma multiforme cell). Kind of assay: CellTiter-Glo cell viability, SF-126. As to conditions: SF-126, insensitive group, 3-4 days of culture, n=3, read-out: IC50 (μM), inhibitory effect on cell line. The method, then:
as §1, with “SF126 (JCRB.” for “MDA-MB-453 (ATCC,”, “1F050286)” for “HTB-131)”, “EMEM” for “Leibovitz's L-15”

For assay [10], the system named is NCI-H82 (Con) cell. Nature of the assay: CellTiter-Glo cell viability, control NCI-H82 cell. The conditions noted are these: Homo sapiens; NCI-H82 transfected with empty virus vector, n=3. The method, then: as §2
In assay [11] the test system is WSU-DLCL2 (human diffuse large B-cell lymphoma). Nature of the assay: CellTiter-Glo cell viability, WSU-DLCL2. As to conditions: WSUDLCL2, WSU-DLCL2, sensitive group, 3-4 days of culture, n=3, read-out: IC50 (μM), inhibitory effect on cell line. The method, then: as §1, with “WSU-DLCL2 (DSMZ,” for “MDA-MB-453 (ATCC,”, “ACC-575)” for “HTB-131)”, “RPMI1640” for “Leibovitz's L-15”

SMILES strings stand for the structures.

On to `O=C(Nc1ccc([N+](=O)[O-])cc1Cl)c1cc(Cl)ccc1O` [Niclosamide, niclosamide], for which the concentration for half-maximal inhibition (IC50) in assay [1] is 0.47 µM; in assay [2], 0.64 µM; in assay [3] it was 0.72 µM; in [4] it was 420 nM; in [5], > 50 µM; in [6] it was > 50 µM. Moreover, the IC50 came out at 0.13 µM in assay [7]; 6.68 µM in assay [8]; 16.2 µM in assay [9]; 120 nM in assay [10]; 0.21 µM in assay [11].
